Assay results as given in patent US10233498B2, “Therapeutic agent for emphysema and COPD” (TRUSTEES OF BOSTON UNIVERSITY, priority 2011, dated 2019).
“Also recorded” adds a separate entry of the source.

What was measured:
[1] = tested on: human lung fibroblasts (HFL-1); assay: Gene expression profiling (microarray, GSEA) of treated HFL-1 fibroblast cultures; assay type: cell-based
Method: GSEA was used to explore connections to other datasets. Genes in this dataset were ranked by the t-statistic of the Lm term in the linear model represented by equation (2) shown above. […] For those datasets where raw data was available, the Entrez gene chip definition file (CDF) was used to obtain RMA normalized expression values. Genes from these datasets were ranked by t-statistic. For dichotomous variables, the t-statistic was calculated from a comparison of expression levels observed in the two groups (e.g. cases and controls). For continuous variables, the t-statistic was from a linear model of expression as a function of the continuous variable (e.g. FEV1). Datasets that measured the effect of TGFβ ligands on gene expression in various cell types included Chambers et al., (The American journal of pathology 2003162:533-46) Verrecchia et al., (The Journal of biological chemistry 2001 276:17058-62), GSE749712, GSE545010, GSE665314, GSE1171013, and GSE172415. Lists of genes that change with TGFβ exposure were taken from the publication associated with the microarray data. If lists of at least 25 genes could not be obtained from the literature, the raw data was used from GEO and normalized as described above. The 200 genes with the highest fold change and the 200 genes with the lowest fold change were used as gene sets and compared to a list of all genes from this dataset ranked by their correlation to Lm.
(§1) Normal human diploid lung fibroblasts (HFL-1) were obtained from the American Type Culture Collection (Manassas, Va.) and used between 3-5 consequent passages after thawing of frozen cells. HFL-1 cells were placed in 6-well culture plates (BD Biosciences, Mississauga, ON) at a density of 1×10^5 cells per well in complete cell culture medium (CCM, DMEM supplemented with 10% FBS, 2 mM L-glutamine and 1% of antibiotic solution; Invitrogen, Burlington, ON). Cells were cultured at 37° C. and 5% CO2 in CCM before they reached 80% confluence. Cells were quiesced in CCM with 1% FBS overnight. […] Cells exposed to the CCM with added DMSO served as a vehicle control. Experiments were repeated 3 times using HFL-1 cells during 3 consequent cell culture passages. Total RNA was isolated from HFL-1 monolayers using RNeasy Plus Mini-Kit (Qiagen, Valencia, Calif.) as per manufacturer's instructions. Quantity and quality of the isolated RNA was determined using Agilent 2100 Bioanalyzer (Agilent Technologies, Mississauga, ON). Isolated RNA was processed and hybridized onto the Human Gene 1.0 ST array (Affymetrix Inc., Santa Clara, Calif.) according to the manufacturer's protocol. Transcript-level gene expression estimates were generated using RMA with the Entrez gene CDF version v11. […] Gene expression profiles were ranked for each treatment by t-statistic.

[2] = tested on: β1-integrin; assay: Immunoblotting for β1-integrin in HFL-1 cells; assay type: cell-based, human; settings: HFL-1, 48 hrs, FIG. 8A
Method: as §1
Production of β1-integrin by HFL-1 cells was assessed by immunoblotting as previously described (Pechkovsky, D. V. et al. The Journal of biological chemistry 2008 283:12898-908). Briefly, total cell protein was extracted from cultured HFL-1 using Cell Protein Extraction Buffer (Biosource, Camarillo, Calif.), quantified by DC Protein Assay (Bio-Rad, Hercules, Calif.), resolved by SDS-PAGE, and transferred to nitrocellulose membranes. Membranes were probed with mouse anti-human β1-integrin antibody (clone 419127, R&D Systems, Minneapolis, Minn.) and anti-β-tubulin antibody (Millipore, Billerica, Mass.) as a loading control. […] Density of the bands was quantified using Odyssey software 2.1 (LI-COR Biosciences). […]

Row | Substance | GSEA: genes that increase after treatment among genes whose expression decreases with increasing emphysema ([1]; GHK 0.1 nM or 10 nM (either concentration), HFL-1, FIG. 7A) | GSEA: 200 genes most induced by GHK at 1 μM in CMap cancer cell lines among genes that increase with treatment in HFL-1 ([1]; GHK 0.1 nM, 48 hrs, HFL-1, FIG. 7B) | ITGB1 expression profile ([1]; GHK 0.1 nM, HFL-1, p=0.004) | GSEA: genes whose expression is decreased with increasing emphysema severity among genes induced by treatment ([1]; GHK 10 nM, 48 hrs, HFL-1, FIG. 7C) | GSEA: genes whose expression is altered by GHK treatment among genes that change with TGFβ1 treatment ([1]; GHK at either concentration (0.1 nM, 10 nM), HFL-1, FIGS. 7B-7D) | β1-integrin (ITGB1) protein levels vs vehicle (DMSO) treated controls ([2]; GHK 0.1 or 10 nM, p<0.01) | GSEA: genes most induced by treatment among genes that decrease in expression with increasing regional emphysema severity ([1]; TGFβ1 10 ng/ml, human lung fibroblasts, FDR<0.05, FIG. 7A) | β1-integrin (ITGB1) protein levels vs vehicle (DMSO) treated controls ([2]; TGFβ 10 ng/mL, p<0.05) | β1-integrin (ITGB1) protein levels vs vehicle (DMSO) treated controls ([2]; TGFβ 10 ng/mL, p<0.05, listed as TGFβ)
1 | Glycine-Histidine-Lysine [GHK] | enriched | enriched | significantly upregulated | enriched | enriched | significantly induced; also recorded: increase |  |  | 
2 | TGFβ1: recombinant human TGFβ1 (10 ng/ml, PeproTech) |  |  |  |  |  |  | enriched | significantly induced | increase
